According to ChEMBL document CHEMBL5113393, “Discovery of 2-((2-methylbenzyl)thio)-6-oxo-4-(3,4,5-trimethoxyphenyl)-1,6-dihydropyrimidine-5-carbonitrile as a novel and effective bromodomain and extra-terminal (BET) inhibitor for the treatment of sepsis” (Eur J Med Chem, 2022):
Calls of active or inactive are those of the source. No cut-off for these calls is given here.

Legend:
[1] = target: T1, Bromodomain-containing protein 4 (Homo sapiens, UniProt O60885); test: Inhibition of BRD4 BD1 (57 to 168 residues) (unknown origin) transfected in Escherichia coli (DE3) using FAM-labeled JQ-1 as fluorescent substrate at 50 uM incubated for 30 mins by competitive fluorescence polarization method relative to control
[2] = target: T1, Bromodomain-containing protein 4; test: Inhibition of BRD4 BD1 (57 to 168 residues) (unknown origin) transfected in Escherichia coli (DE3) using FAM-labeled JQ-1 as fluorescent substrate at 5 uM incubated for 30 mins by competitive fluorescence polarization method relative to control
[3] = target: T1, Bromodomain-containing protein 4; test: Inhibition of BRD4 BD2 (352 to 457 residues) (unknown origin) transfected in Escherichia coli (DE3) using FAM-labeled JQ-1 as fluorescent substrate at 50 uM incubated for 30 mins by competitive fluorescence polarization method relative to control
[4] = target: T1, Bromodomain-containing protein 4; test: Inhibition of BRD4 BD2 (352 to 457 residues) (unknown origin) transfected in Escherichia coli (DE3) using FAM-labeled JQ-1 as fluorescent substrate at 5 uM incubated for 30 mins by competitive fluorescence polarization method relative to control
[5] = target: T1, Bromodomain-containing protein 4; test: Inhibition of BRD4 BD1 (57 to 168 residues) (unknown origin) transfected in Escherichia coli (DE3) using FAM-labeled JQ-1 as fluorescent substrate at 100 uM incubated for 30 mins by competitive fluorescence polarization method relative to control
[6] = target: T1, Bromodomain-containing protein 4; test: Inhibition of BRD4 BD2 (352 to 457 residues) (unknown origin) transfected in Escherichia coli (DE3) using FAM-labeled JQ-1 as fluorescent substrate at 100 uM incubated for 30 mins by competitive fluorescence polarization method relative to control
[7] = target: T1, Bromodomain-containing protein 4; test: Inhibition of BRD4 BD1 (unknown origin) using FAM-labeled JQ-1 as fluorescent substrate assessed as inhibition constant incubated for 30 mins by competitive fluorescence polarization method
[8] = target: T1, Bromodomain-containing protein 4; test: Binding affinity to His-tagged biotinylated BRD4 BD1 (unknown origin) assessed as dissociation constant by biolayer interferometry analysis
[9] = target: T1, Bromodomain-containing protein 4; test: Binding affinity to His-tagged biotinylated BRD4 BD1 (unknown origin) assessed as binding constant (Kon) by biolayer interferometry analysis
[10] = target: T1, Bromodomain-containing protein 4; test: Binding affinity to His-tagged biotinylated BRD4 BD1 (unknown origin) assessed as dissociation rate constant by biolayer interferometry analysis
RAW264.7 [11] = test: Antiinflammatory activity in mouse RAW264.7 cells assessed as inhibition of LPS-induced NO production at 5 uM preincubated for 2 hrs followed by LPS stimulation and measured after 22 hrs by Griess reagent-based assay relative to control; format: functional; conditions: time 24 hrs
RAW264.7 [12] = test: Antiinflammatory activity in mouse RAW264.7 cells assessed as inhibition of LPS-induced NO production at 10 uM preincubated for 2 hrs followed by LPS stimulation and measured after 22 hrs by Griess reagent-based assay relative to control; format: functional; conditions: time 24 hrs
Mus musculus = test: Protection against LPS-induced sepsis in C57BL/6 mouse model assessed as reduction in hypothermia at 10 mg/kg, ip qd administered for 3 days followed by LPS stimulation for 12 hrs and measured every 1 hr by digital thermometer; format: functional, organism-based; conditions: time 84.0 hrs

| Structure (SMILES) | inhibition [5] [%] | inhibition [6] [%] | Ki [7] [nM] | also measured |
| --- | --- | --- | --- | --- |
| N#Cc1c(O)nc(SCc2ccccc2Cl)nc1-c1ccccc1 | 47 | 46.5 | 12300 | inhibition [1]: 71.9%; inhibition [2]: 7.01%; inhibition [3]: 83.5%; inhibition [4]: 19.3%; Kd [8]: 184000 nM; K [9]: 7.28 10^2/Ms; Kdiss [10]: 1.34 10^-1/s |
| COc1ccc(CNC(=O)C2CCCN(c3nc4c(-c5ccc(C)cc5)csc4c(=O)[nH]3)C2)cc1 (stereo not drawn) | – | – | – | inhibition [1]: 21.9%; inhibition [2]: 2.1%; inhibition [3]: 29.7%; inhibition [4]: 3.8% |
| COc1ccc(-c2nc(SCc3ccccc3Cl)[nH]c(=O)c2C#N)c(OC)c1OC | 53.1 | 51.7 | – | – |
| COc1ccc(-c2nc(SCc3ccccc3Cl)[nH]c(=O)c2C#N)cc1C | 53.1 | 55.1 | – | – |
| COc1ccccc1-c1nc(SCc2ccccc2Cl)[nH]c(=O)c1C#N | 44.3 | 47.5 | – | – |
| COc1cccc(-c2nc(SCc3ccccc3Cl)[nH]c(=O)c2C#N)c1OC | 50.7 | 51.3 | – | – |
| COc1cccc(-c2cc(=O)[nH]c(N3CCN(c4ccccc4)CC3)n2)c1 | – | – | – | inhibition [1]: 39%; inhibition [2]: 1.56%; inhibition [3]: 41.7%; inhibition [4]: 11% |
| N#Cc1c(-c2ccc3c(c2)OCCO3)nc(SCc2ccccc2Cl)[nH]c1=O | 55.5 | 53.8 | – | – |
| COc1cc(-c2nc(SCc3ccccc3Cl)[nH]c(=O)c2C#N)cc(Cl)c1OC | 59.7 | 59.6 | – | – |
| COc1ccc(-c2nc(SCc3ccccc3Cl)[nH]c(=O)c2C#N)cc1OC | 65.1 | 68.7 | 3230 | – |
| Cc1sc2c(c1C)C(c1ccc(Cl)cc1)=N[C@@H](CC(=O)Nc1ccc(O)cc1)c1nnc(C)n1-2 [BIRABRESIB] | – | – | – | inhibition at 5 µM (RAW264.7 [11]): 93.4%; inhibition at 10 µM (RAW264.7 [12]): 99.9%; Activity (Mus musculus): Active |
| COc1ccc(-c2nc(SCc3ccccc3Cl)ncc2C#N)cc1OC | – | – | 4930 | – |
| N#Cc1c(-c2ccc(OC(F)(F)F)cc2)nc(SCc2ccccc2Cl)[nH]c1=O | 45.8 | 17.1 | – | – |
| COc1cc(-c2nc(SCc3cc(C)cc(C)c3)[nH]c(=O)c2C#N)cc(OC)c1OC | – | – | 1480 | inhibition at 5 µM (RAW264.7 [11]): 69.3%; inhibition at 10 µM (RAW264.7 [12]): 92.1% |
| N#Cc1c(-c2ccc3c(c2)OCO3)nc(SCc2ccccc2Cl)[nH]c1=O | 45.3 | 44.3 | – | – |
| Cc1cccc(OCc2occc2C(=O)N(C)Cc2cc(O)nc3ccccc23)c1 | – | – | – | inhibition [1]: 11.3%; inhibition [2]: 3.59%; inhibition [3]: 15.1%; inhibition [4]: 4.71% |
| COC(=O)c1cc(-c2nc(SCc3ccccc3Cl)[nH]c(=O)c2C#N)ccc1OC | 42.9 | 48 | – | – |
| COc1ccc(-c2nc(SCCc3ccccc3Cl)[nH]c(=O)c2C#N)cc1OC | – | – | 7580 | – |
| Oc1ccc(-c2[nH]c(-c3ccccc3O)nc2-c2ccccc2)cc1 | – | – | – | inhibition [1]: 53%; inhibition [2]: 11.8%; inhibition [3]: 17.2%; inhibition [4]: 3.96% |
| COc1cc(-c2nc(SCc3ccccc3Cl)[nH]c(=O)c2C#N)cc(O)c1OC | 69.3 | 63.4 | 1950 | – |

| Structure (SMILES) | inhibition [5] [%] | inhibition [6] [%] | Ki [7] [nM] | also measured |
| --- | --- | --- | --- | --- |
| CCOc1ccc(-c2nc(SCc3ccccc3Cl)[nH]c(=O)c2C#N)cc1OC | 64.7 | 55.7 | – | – |
| COc1ccccc1NS(=O)(=O)c1cc(-c2n[nH]c(=O)c3ccccc23)ccc1C | – | – | – | inhibition [1]: 19%; inhibition [3]: 21.7%; inhibition [4]: 1.26% |
| COc1ccc(-c2nc(SCc3ccccc3Cl)n(C)c(=O)c2C#N)cc1OC | – | – | 18300 | inhibition at 5 µM (RAW264.7 [11]): 5.19%; inhibition at 10 µM (RAW264.7 [12]): 14.9% |
| COc1ccc(OC)c(-c2nc(SCc3ccccc3Cl)[nH]c(=O)c2C#N)c1 | 51.6 | 43 | – | – |
| COc1cccc(-c2nc(SCc3ccccc3Cl)[nH]c(=O)c2C#N)c1 | 45.3 | 45.1 | – | – |
| COc1cc(-c2nc(SCc3ccccc3[N+](=O)[O-])[nH]c(=O)c2C#N)cc(OC)c1OC | – | – | 790 | inhibition at 5 µM (RAW264.7 [11]): 29.3%; inhibition at 10 µM (RAW264.7 [12]): 32.4% |
| CCOc1cc(-c2nc(SCc3ccccc3Cl)[nH]c(=O)c2C#N)ccc1OC | 65.3 | 62.4 | – | – |
| COc1cc(-c2nc(SCc3ccccc3F)[nH]c(=O)c2C#N)cc(OC)c1OC | – | – | 870 | inhibition at 5 µM (RAW264.7 [11]): 33.7%; inhibition at 10 µM (RAW264.7 [12]): 94.1% |
| COc1ccc(-c2nc(NCc3ccccc3)[nH]c(=O)c2C#N)cc1OC | – | – | 16300 | – |
| COc1cc(-c2nc(SCc3ccccc3C(F)(F)F)[nH]c(=O)c2C#N)cc(OC)c1OC | – | – | 1190 | inhibition at 5 µM (RAW264.7 [11]): 62.4%; inhibition at 10 µM (RAW264.7 [12]): 81% |
| COc1cc(-c2nc(SCc3ccccc3Cl)[nH]c(=O)c2C#N)cc(OC)c1OC | 84.7 | 74.3 | 1740 | Kd [8]: 756 nM; K [9]: 3.84 10^4/Ms; Kdiss [10]: 2.9 10^-2/s; inhibition at 5 µM (RAW264.7 [11]): 75.2%; inhibition at 10 µM (RAW264.7 [12]): 99.7% |
| CNC(=O)c1cccc(-c2nc(SCc3ccccc3Cl)[nH]c(=O)c2C#N)c1 | 66.4 | 65.9 | – | – |
| COc1cc(-c2nc(SCc3ccccc3Cl)[nH]c(=O)c2C#N)ccc1OC(F)F | 54.4 | 59.2 | – | – |
| COc1ccc(-c2nc(SCc3ccccc3Cl)[nH]c(=O)c2C#N)cc1 | 44.1 | 18.8 | – | – |
| COc1cc(-c2nc(SCc3ccc(C)cc3)[nH]c(=O)c2C#N)cc(OC)c1OC | – | – | 1380 | inhibition at 5 µM (RAW264.7 [11]): 65.3%; inhibition at 10 µM (RAW264.7 [12]): 87.4% |
| CCOc1ccc(-c2nc(SCc3ccccc3Cl)[nH]c(=O)c2C#N)cc1OCC | 56.8 | 55.9 | – | – |
| Cc1cc2nc(SCC(=O)N(C)c3cccc(Cl)c3)[nH]c(=O)c2[nH]1 | – | – | – | inhibition [1]: 14.7%; inhibition [2]: 4.63%; inhibition [3]: 17.2%; inhibition [4]: 3.96% |
| COc1cc(OC)cc(-c2nc(SCc3ccccc3Cl)[nH]c(=O)c2C#N)c1 | 40.3 | 47.2 | – | – |
| COc1cc(-c2nc(SCc3cccc(C)c3)[nH]c(=O)c2C#N)cc(OC)c1OC | – | – | 1250 | inhibition at 5 µM (RAW264.7 [11]): 14.9%; inhibition at 10 µM (RAW264.7 [12]): 75.5% |
| COc1cc(-c2nc(SCc3cccc(C)c3C)[nH]c(=O)c2C#N)cc(OC)c1OC | – | – | 1730 | inhibition at 5 µM (RAW264.7 [11]): 51.8%; inhibition at 10 µM (RAW264.7 [12]): 78.2% |
